In patent US20200055871A1, “ACTIVATORS OF THE RETINOIC ACID INDUCIBLE GENE "RIG-I" PATHWAY AND METHODS OF USE THEREOF” (Kineta Immuno-Oncology LLC, priority 2018, published 2020):
Read-outs that look alike come from different tables or passages of the source.

What was measured:
[1] = system: IRF3-deficient THP1-Lucia™ ISG IRF3−/− cells; assay: THP1-Lucia ISG IRF3−/− reporter assay (IRF3-deficient control cells); type: cell-based, human; details: compound 5 to 20 μM, 18 h
Procedure: (§1) The promoter was comprised of five IFN-stimulated response elements (ISRE) fused to an ISG54 minimal promoter which is unresponsive to NF-kB or AP-1 pathways. […] The IRF3-deficient THP1-Lucia™ ISG IRF3−/−reporter cell line was generated by CRISPR technology from the parent THP1-Lucia™ ISG reporter cell line.
(§2) THP1-Lucia™ ISG cells and IRF3-deficient THP1-Lucia™ ISG IRF3−/−cells were differentiated with PMA (100 ng/ml) and stimulated with compounds at the indicated concentrations (5 to 20 μM), positive control, or not treated (background). Luciferase secretion was quantified using the QUANTI-Luc luciferase assay system (InvivoGen) 18 h after stimulation. Data are shown as fold increase luciferase activity over background in Table 7 and represent the IRF3-dependent ISG54 promoter activity by the THP1-Lucia™ ISG cells in response to compounds. […] The fold increase of compounds (10 μM, *20 μM, **5 μM) induced IRF3 dependent luciferase activity is indicated as follows: “≠” indicates less than 2.4 fold increase; “+” indicates a 2.4-4.9 fold increase; “++” indicates a 5-9.9 fold increase; “+++” indicates a 10-19 fold increase; “++++” indicates a 20-39 fold increase; “+++++” indicates greater than or equal to 40 fold increase.

[2] = system: murine CT26 colon carcinoma cells; assay: RIG-I dependent CXCL10 secretion by CT26 cells (ELISA); type: cell-based; details: supernatant 24 h after stimulation
Procedure: (§3) The CT26 murine colon carcinoma cell line (ATCC) was used to evaluate the induction of CXCL10 secretion. CXCL10 is an important chemokine in tumor immune biology that recruits tumor-specific T cells to the tumor. To confirm that compound-mediated CXCL10 production was RIG-I specific, RIG-1 deficient CT2-RIG-I−/−cells were generated by Kineta Inc. using CRISPR technology.
(§4) CT26 cells were seeded at a density of 1×10^4 cells per well on a 96-well tissue culture plate in 100 μL of cell culture and cells were incubated at 37° C. and 5% CO2 for 24 hr. Next, CT26 cells were treated with compounds at the indicated concentrations. CXCL10 was quantified by ELISA from supernatants taken 24 h after compound stimulation by use of the CXCL10 Duo Set ELISA kit (Cat #DY466, R&D, Minneapolis, Minn., USA) according to the manufacturer's instructions.
(§5) CXCL10 secretion by CT26 cells in response to compounds (in an amount of 5 to 20 μM) of the present disclosure is shown in Table 8. The compound-induced CXCL10 production was RIG-I dependent, since none of the compounds mediated CXCL10 secretion in RIG-I deficient CT26 RIG-I−/−cells (about 0 pg/mL of CXCL10, or below the level of quantitation). The compounds (10 μM, *20 μM, **5 μM) are indicated in the table as follows: “≠” indicates less than 100 pg/mL; “+” indicates 100-199 pg/mL; “++” indicates 200-399 pg/mL; “+++” indicates 400-799 pg/mL; “++++” indicates 800 to 1599 pg/mL; “+++++” indicates greater than or equal to 1600 pg/ml.

[3] = system: IRF3 signaling pathway in THP1-Lucia™ ISG cells; assay: THP1-Lucia ISG reporter assay: induction of IRF3-dependent gene expression (secreted luciferase); type: cell-based, human; details: for fold induction at 20 µM / fold induction at 10 µM: Homo sapiens, THP1-Lucia ISG, read-out: fold increase of IRF3-dependent luciferase activity over background, THP1 ISG
Procedure: The compounds were evaluated in the THP1-Lucia™ ISG (interferon stimulated genes) reporter assay to determine if the compounds activate the IRF3 signaling pathway. The THP1-Lucia™ cells (InvivoGen) express the secreted luciferase (Lucia) reporter gene under the control of an IRF-inducible promoter. The reporter cell line was developed from human monocytic leukemia THP-1 cells.
as §1, §2

[4] = system: RIG-I deficient CT26 RIG-I−/− cells; assay: CXCL10 secretion by RIG-I deficient CT26 RIG-I−/− cells (ELISA); type: cell-based, murine; details: compound 5 to 20 μM, 24 h
Procedure: as §3, §4, §5

[5] = 10 μM compound, PMA-differentiated cells, 18 h after stimulation
[6] = 20 μM compound (*), PMA-differentiated cells, 18 h after stimulation

Row | Compound | fold increase of luciferase activity, THP1 ISG IRF3−/− [1] | CXCL10 secretion, CT26 ([2]; 10 μM compound) | CXCL10 secretion, CT26 RIG-I−/− [4] | further results
1 | O=C(Nc1cc2ccc3scnc3c2s1)c1cc2ccsc2cc1OCCCCN1CCOCC1 [Example 66, N-{5,12-dithia-3-azatricyclo[7.3.0.0^2,^6]dodeca-1,3,6,8,10-pentaen-11-yl}-6-[4-(morpholin-4-yl)butoxy]-1-benzothiophene-5-carboxamide] | − (less than 0.5 fold above baseline was considered below the level of quantitation) | +++++ (greater than or equal to 1600 pg/ml) | − | fold increase of IRF3-dependent luciferase activity over background, THP1 ISG [3, 5]: + (a 2.4-4.9 fold increase)
2 | 6-[2-(morpholin-4-yl)ethoxy]-N-{4-oxo-5,12-dithia-3-azatricyclo[7.3.0.0^2,^6]dodeca-1,6,8,10-tetraen-11-yl}-1-benzothiophene-5-carboxamide [Example 70] | − (less than 0.5 fold above baseline was considered below the level of quantitation) |  | − | 
3 | O=C(Nc1nc2ccc3ocnc3c2s1)c1cc2ccccc2cc1OCCCCN1CCOCC1 [Example 53, 3-[4-(morpholin-4-yl)butoxy]-N-{10-oxa-3-thia-5,12-diazatricyclo [7.3.0.0^2,^6]dodeca-1,4,6,8,11-pentaen-4-yl}naphthalene-2-carboxamide] | − (less than 0.5 fold above baseline was considered below the level of quantitation) | +++++ (greater than or equal to 1600 pg/ml) | − | fold increase of IRF3-dependent luciferase activity over background, THP1 ISG [3, 5]: ++ (a 5-9.9 fold increase)
4 | O=C(Nc1nc2c(ccc3scnc32)[nH]1)c1ccc2ccccc2c1 [Example 48, N-{5-thia-3,10,12-triazatricyclo[7.3.0.0^2,^6]dodeca-1,3,6,8,11-pentaen-11-yl}naphthalene-2-carboxamide] | − (less than 0.5 fold above baseline was considered below the level of quantitation) |  | − | CXCL10 secretion, CT26 ([2]; 20 μM compound (*)): ++++* (800 to 1599 pg/mL); fold increase of IRF3-dependent luciferase activity over background, THP1 ISG [3, 6]: ++* (a 5-9.9 fold increase)
5 | O=C(Nc1cc2ccc3scnc3c2s1)c1cc2ccsc2cc1OCCN1CCOCC1 [Example 65, N-{5,12-dithia-3-azatricyclo[7.3.0.0^2,^6]dodeca-1,3,6,8,10-pentaen-11-yl}-6-[2-(morpholin-4-yl)ethoxy]-1-benzothiophene-5-carboxamide] | − (less than 0.5 fold above baseline was considered below the level of quantitation) | ≠ (less than 100 pg/mL) |  | fold increase of IRF3-dependent luciferase activity over background, THP1 ISG [3, 5]: + (a 2.4-4.9 fold increase)
6 | Cn1ccc2cc(OCCN3CCOCC3)c(C(=O)Nc3nc4ccc5scnc5c4s3)cc21 [Example 69, N-{3,10-dithia-5,12-diazatricyclo[7.3.0.0^2,^6]dodeca-1,4,6,8,11-pentaen-4-yl}-1-methyl-5-[2-(morpholin-4-yl)ethoxy]-1H-indole-6-carboxamide] | − (less than 0.5 fold above baseline was considered below the level of quantitation) |  | − | 
7 | N-{4-methoxy-5,12-dithia-3-azatricyclo[7.3.0.0^2,^6]dodeca-1,3,6,8,10-pentaen-11-yl}-6-[2-(morpholin-4-yl)ethoxy]-1-benzothiophene-5-carboxamide [Example 67] | − (less than 0.5 fold above baseline was considered below the level of quantitation) |  | − | 
8 | O=C(Nc1nc2ccc3scnc3c2s1)c1cc2ccccc2cc1OCCN1CC2CC1CO2 (centres unmarked) [Example 33, N-{3,10-dithia-5,12-diazatricyclo[7.3.0.0^2,^6]dodeca-1,4,6,8,11-pentaen-4-yl}-3-(2-{2-oxa-5-azabicyclo[2.2.1]heptan-5-yl}ethoxy)naphthalene-2-carboxamide] |  | ++++ (800 to 1599 pg/mL) | − | fold induction at 20 µM [3, 6]: 10 to 19
9 | O=C(Nc1nc2ccc3scnc3c2s1)c1ccc2occc2c1 [Example 15, N-{3,10-dithia-5,12-diazatricyclo[7.3.0.0^2,^6]dodeca-1,4,6,8,11-pentaen-4-yl}-1-benzofuran-5-carboxamide] |  | ++ (200-399 pg/mL) | − | fold induction at 20 µM [3, 6]: 2.4 to 4.9
10 | O=C(Nc1nc2ccc3scnc3c2s1)c1cccc(C(F)(F)F)c1 [Example 8, N-{3,10-dithia-5,12-diazatricyclo[7.3.0.0^2,^6]dodeca-1,4,6,8,11-pentaen-4-yl}-3-(trifluoromethyl)benzamide] |  |  | − | CXCL10 secretion, CT26 ([2]; 20 μM compound (*)): +* (100-199 pg/mL); fold induction at 20 µM [3, 6]: 10 to 19
11 | O=C(Nc1nc2ccc3scnc3c2s1)c1cc2ccsc2cc1OCCCCN1CCOCC1 [Example 43, N-{3,10-dithia-5,12-diazatricyclo[7.3.0.0^2,^6]dodeca-1,4,6,8,11-pentaen-4-yl}-6-[4-(morpholin-4-yl)butoxy]-1-benzothiophene-5-carboxamide] |  | +++ (400-799 pg/mL) | − | fold induction at 10 µM [3, 5]: 10 to 19
12 | COc1cc(OC)cc(C(=O)Nc2nc3ccc4sc(C)nc4c3s2)c1 [Example 2, 3,5-dimethoxy-N-{11-methyl-3,10-dithia-5,12-diazatricyclo[7.3.0.0^2,^6]dodeca-1,4,6,8,11-pentaen-4-yl}benzamide] |  |  | − | CXCL10 secretion, CT26 ([2]; 20 μM compound (*)): ++++* (800 to 1599 pg/mL); fold induction at 10 µM [3, 5]: 5 to 9.9
13 | O=C(Nc1nc2ccc3scnc3c2s1)c1cccc([N+](=O)[O-])c1 [Example 9, N-{3,10-dithia-5,12-diazatricyclo [7.3.0.0^2,^6]dodeca-1,4,6,8,11-pentaen-4-yl}-3-nitrobenzamide] |  | +++ (400-799 pg/mL) | − | fold induction at 10 µM [3, 5]: 2.4 to 4.9
14 | O=C(Nc1nc2ccc3scnc3c2s1)c1ccc2c(c1)OCO2 [Example 4, N-{3,10-dithia-5,12-diazatricyclo[7.3.0.0^2,^6]dodeca-1,4,6,8,11-pentaen-4-yl}-2H-1,3-benzodioxole-5-carboxamide] |  | +++ (400-799 pg/mL) | − | fold induction at 10 µM ([3]; 18 h): 10 to 19
15 | COc1nc2c(ccc3cc(NC(=O)c4cc5ccsc5cc4OCCCCN4CCOCC4)sc32)s1 [Example 68, N-{4-methoxy-5,12-dithia-3-azatricyclo[7.3.0.0^2,^6]dodeca-1,3,6,8,10-pentaen-11-yl}-6-[4-(morpholin-4-yl)butoxy]-1-benzothiophene-5-carboxamide] | − (less than 0.5 fold above baseline was considered below the level of quantitation) |  | − | 
16 | O=C(Nc1nc2ccc3scnc3c2s1)c1ccc2c(c1)CCCC2 [Example 13, N-{3,10-dithia-5,12-diazatricyclo[7.3.0.0^2,^6]dodeca-1,4,6,8,11-pentaen-4-yl}-5,6,7,8-tetrahydronaphthalene-2-carboxamide] |  | +++ (400-799 pg/mL) | − | fold induction at 20 µM ([3]; 18 h): 5 to 9.9
